# Literature values as cited in patent US20260210975A1, “DIAGNOSIS AND TREATMENT OF LONG-COVID” (priority 2022, published 2026).
# Where two headings read alike, the source gives them in different places.
# Target: KCNH2 (Homo sapiens, UniProt Q12809)
# Sequence (Q12809 whole entry): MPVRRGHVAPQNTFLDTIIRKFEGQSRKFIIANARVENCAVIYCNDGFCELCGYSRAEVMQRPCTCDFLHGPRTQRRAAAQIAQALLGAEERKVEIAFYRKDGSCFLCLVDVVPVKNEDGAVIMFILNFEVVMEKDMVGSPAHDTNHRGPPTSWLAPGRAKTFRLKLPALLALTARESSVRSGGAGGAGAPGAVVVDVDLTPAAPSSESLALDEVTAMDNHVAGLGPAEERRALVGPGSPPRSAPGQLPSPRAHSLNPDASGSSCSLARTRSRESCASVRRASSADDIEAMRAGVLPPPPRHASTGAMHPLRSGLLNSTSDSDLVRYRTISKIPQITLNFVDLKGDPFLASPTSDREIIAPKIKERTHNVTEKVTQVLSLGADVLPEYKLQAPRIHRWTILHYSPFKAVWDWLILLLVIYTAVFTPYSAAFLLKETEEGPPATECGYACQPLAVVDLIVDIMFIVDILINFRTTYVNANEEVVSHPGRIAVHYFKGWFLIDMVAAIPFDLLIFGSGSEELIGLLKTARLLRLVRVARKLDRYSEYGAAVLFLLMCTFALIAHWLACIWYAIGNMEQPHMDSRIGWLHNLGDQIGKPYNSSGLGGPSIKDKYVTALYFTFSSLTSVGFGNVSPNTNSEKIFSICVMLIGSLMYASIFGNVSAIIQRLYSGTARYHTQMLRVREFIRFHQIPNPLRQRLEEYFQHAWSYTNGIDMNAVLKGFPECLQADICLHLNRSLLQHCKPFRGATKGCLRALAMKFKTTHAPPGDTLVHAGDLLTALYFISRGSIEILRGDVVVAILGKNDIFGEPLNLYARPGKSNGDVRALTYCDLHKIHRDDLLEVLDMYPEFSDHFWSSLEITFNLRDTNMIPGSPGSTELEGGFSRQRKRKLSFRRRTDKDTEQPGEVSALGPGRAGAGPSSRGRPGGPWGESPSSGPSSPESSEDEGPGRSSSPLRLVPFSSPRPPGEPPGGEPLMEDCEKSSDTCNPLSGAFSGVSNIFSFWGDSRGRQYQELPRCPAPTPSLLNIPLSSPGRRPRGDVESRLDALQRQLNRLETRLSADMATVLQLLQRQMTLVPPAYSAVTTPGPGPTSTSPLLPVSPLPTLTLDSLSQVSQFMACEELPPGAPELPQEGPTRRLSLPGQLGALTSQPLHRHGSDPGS
compound,measurement,setting,value
C[C@@H]1CN(c2c(F)c(N)c3c(=O)c(C(=O)O)cn(C4CC4)c3c2F)C[C@H](C)N1 [sparfloxacin],IC50,,~18 µM
Cc1cc2c(s1)Nc1ccccc1N=C2N1CCN(C)CC1 [olanzapine],IC50,,~6.01 µM
prenylamine,IC50,"read-out: IC50 (half maximal inhibitory concentration), KCNH2 inhibitors, literature values",~0.59 µM
COc1ccc(CN(CCN(C)C)c2ccccn2)cc1 [pyrilamine],IC50,,~6 µM
arsenic trioxide,IKr,"listed as weak inhibitor of KCNH2, literature value",approximately 300 μmol/l
